In publication PMC4376724, “Differential Phenotypic and Functional Profiles of TcCA-2 -Specific Cytotoxic CD8^+ T Cells in the Asymptomatic versus Cardiac Phase in Chagasic Patients” (PLoS ONE, 2015):

What was measured:
[1] = system: PBMCs from asymptomatic HLA-A*02:01 Chagas disease patients; test: HLA-A*02:01 restriction assay: peptide-pulsed K562-A2 cells as APC, IFN-γ secretion by patient PBMC; assay type: cell-based, human; conditions: range among patients with a positive response; K562-A2 pulsed with 1 mM peptide 1 h, 30 h co-culture; K562 level subtracted
Method: TAP-deficient T2 cells were used for the HLA-A*02:01 binding assays and the K562-A2 cells for the HLA-A*02:01 restriction assay. The cells were cultured in complete RPMI medium supplemented with 10% of inactivated Fetal Calf Serum (iFCS), 2 mM glutamine, and 100 U/ml penicillin. K562-A2 cells, expressing the HLA-A*02:01 molecule were cultured in the presence of […] of G-418, as previously described. The T2 and K562-A2 cells were kindly provided by Dr. Pedro Romero (University of Lausanne) and by Dr Peter Ponsaerts (University of Antwerp, with the permission of Dr. Cedrik Britten from Johanes Gutenberg-University Mainz), respectively.
(§1) For the screening of the recognition of TcCA-2 epitopes by Chagas disease patients, 10 HLA-A*02:01 adult patients in the asymptomatic phase of the disease (IND) were enrolled. For cytotoxicity, functional activity determinations and phenotypic characterization another group of 19 HLA-A*02:01 adults Chagas disease patients and 9 healthy donors were analyzed. These patients were at the chronic stage of the disease and were considered to be at the asymptomatic phase (IND, n = 8) if there was no evidence of having cardiac or gastrointestinal disorders. Chronic Chagas cardiomyopathy patients (CCC, n = 11) were stratified into G1 to G3 stages following Kuschnir classification according to clinical criteria and radiological, electrocardiographic and echocardiography analyses. The number of patients was the one recommended by the Hospital Ethical Committee. […] The patients were enrolled in both studies (functional and phenotypic characterization, IND n = 6 and CCC n = 7) when the available number of purified PBMC (limited by the cellular number isolated from each subject) was enough for both analyses. Another four CCC patients had to be enrolled to perform the phenotypic analysis in order to reach statistical significance.
Cytokine secretion (IL-4, IL-10, IL-6, IFN-γ, TNF-α) was determined in the supernatants of PBMC from Chagas disease patients and healthy donors, after in vitro stimulation with 1 μM of each peptide for 30 h at 37°C in RPMI supplemented with 10% iFBS as explained before. The secretion profile was determined by using a bead-based multiplex immunoassay system (Bio-Plex, Bio-Rad), following the manufacturer's instructions. The response was considered positive if an increase in the secretion of cytokines was at least three folds higher than the secretion by un-stimulated cells (basal secretion level) and at least, 4 pg/mL for IL-4, 2 pg/mL for IL-10, 15 pg/mL for IL-6 and 5 pg/mL for IFN-γ and TNF-α. The positive control consisted of 50 ng/mL Phorbol 12 myristate 13-acetate (PMA) and 500 ng/mL ionomycin (Sigma). Cytokine levels were quantified in each sample by using the Bio-Plex Manager software 4.1 (Bio-Rad). […]

[2] = system: PBMC from HLA-A*02:01 Chagas disease patients and healthy donors; test: Cytokine secretion test (Bio-Plex multiplex immunoassay) in PBMC supernatants; assay type: cell-based, human; conditions: 1 μM peptide, 30 h; for IFNγ / IL6 / TNFα: non-peptide control subtracted
Method: as §1
Cytokine secretion (IL-4, IL-10, IL-6, IFN-γ, TNF-α) was determined in the supernatants of PBMC from Chagas disease patients and healthy donors, after in vitro stimulation with 1 μM of each peptide for 30 h at 37°C in RPMI supplemented with 10% iFBS as explained before. The secretion profile was determined by using a bead-based multiplex immunoassay system (Bio-Plex, Bio-Rad), following the manufacturer's instructions. The response was considered positive if an increase in the secretion of cytokines was at least three folds higher than the secretion by un-stimulated cells (basal secretion level) and at least, 4 pg/mL for IL-4, 2 pg/mL for IL-10, 15 pg/mL for IL-6 and 5 pg/mL for IFN-γ and TNF-α. The positive control consisted of 50 ng/mL Phorbol 12 myristate 13-acetate (PMA) and 500 ng/mL ionomycin (Sigma). Cytokine levels were quantified in each sample by using the Bio-Plex Manager software 4.1 (Bio-Rad).
Functional analysis of the epitope-specific CD8^+ T cells was carried out by the determination of the secretion profile of IFN-γ, TNF-α, IL-4, IL10 and IL-6 cytokines. […] CD8^+ T cells from 2 out of 11 patients responded to stimulation with peptide TcCA-2_273-281 by secreting IL-6. […] There was no secretion of IL-4 and IL-10 in PBMC after stimulation with any one of the four TcCA-2 peptides (data not shown). IFN-γ, TNF-α and IL6 cytokines secretion levels were higher in patients at the asymptomatic phase of the disease than in Chagas patients with associated cardiomyopathy.

AAAGDKLSL [TcCA-2_273-281]
INF-γ secretion range [1]: 8.6 pg/mL
Patients whose cells responded by secreting IL-6 ([2]; PBMC of Chagas patients, same positivity criteria): 2 out of 11
IFNγ ([2]; PBMC of patient CCC I 456): 0 pg/mL
IL6 ([2]; PBMC of patient CCC I 456): 0 pg/mL
TNFα ([2]; PBMC of patient CCC I 456): 0 pg/mL
IFNγ ([2]; PBMC of patient CCC I 770): 0 pg/mL
IL6 ([2]; PBMC of patient CCC I 770): 22 pg/mL
TNFα ([2]; PBMC of patient CCC I 770): 4 pg/mL
IFNγ ([2]; PBMC of patient CCC I 861): 2 pg/mL
IL6 ([2]; PBMC of patient CCC I 861): -4 pg/mL
TNFα ([2]; PBMC of patient CCC I 861): -2 pg/mL
IFNγ ([2]; PBMC of patient CCC I 884): 0 pg/mL
IL6 ([2]; PBMC of patient CCC I 884): 0 pg/mL
TNFα ([2]; PBMC of patient CCC I 884): 0 pg/mL
IFNγ ([2]; PBMC of patient CCC III 509): 0 pg/mL
IL6 ([2]; PBMC of patient CCC III 509): -4 pg/mL
TNFα ([2]; PBMC of patient CCC III 509): -5 pg/mL
IFNγ ([2]; PBMC of patient IND 365): 1 pg/mL
IL6 ([2]; PBMC of patient IND 365): 43 pg/mL
TNFα ([2]; PBMC of patient IND 365): -6 pg/mL
IFNγ ([2]; PBMC of patient IND 388): 2 pg/mL
IL6 ([2]; PBMC of patient IND 388): 36 pg/mL
TNFα ([2]; PBMC of patient IND 388): 7 pg/mL
IFNγ ([2]; PBMC of patient IND 510): 0 pg/mL
IL6 ([2]; PBMC of patient IND 510): 1 pg/mL
TNFα ([2]; PBMC of patient IND 510): -1 pg/mL
IFNγ ([2]; PBMC of patient IND 535): 0 pg/mL
IL6 ([2]; PBMC of patient IND 535): -5 pg/mL
TNFα ([2]; PBMC of patient IND 535): -1 pg/mL
IFNγ ([2]; PBMC of patient IND 571): 0 pg/mL
IL6 ([2]; PBMC of patient IND 571): 0 pg/mL
TNFα ([2]; PBMC of patient IND 571): 0 pg/mL
IFNγ ([2]; PBMC of patient IND 917): 7 pg/mL
IL6 ([2]; PBMC of patient IND 917): 18 pg/mL
TNFα ([2]; PBMC of patient IND 917): 11 pg/mL
IFNγ ([2]; PBMC of subject HD 001): 6 pg/mL
IL6 ([2]; PBMC of subject HD 001): 1 pg/mL
TNFα ([2]; PBMC of subject HD 001): -8 pg/mL
IFNγ ([2]; PBMC of subject HD 004): 0 pg/mL
IL6 ([2]; PBMC of subject HD 004): -9 pg/mL
TNFα ([2]; PBMC of subject HD 004): 0 pg/mL
IFNγ ([2]; PBMC of subject HD 005): -19 pg/mL
IL6 ([2]; PBMC of subject HD 005): -183 pg/mL
TNFα ([2]; PBMC of subject HD 005): -11 pg/mL
IFNγ ([2]; PBMC of subject HD 006): 6 pg/mL
IL6 ([2]; PBMC of subject HD 006): 1 pg/mL
TNFα ([2]; PBMC of subject HD 006): 2 pg/mL
IFNγ ([2]; PBMC of subject HD 008): -1 pg/mL
IL6 ([2]; PBMC of subject HD 008): 9 pg/mL
TNFα ([2]; PBMC of subject HD 008): 0 pg/mL
IFNγ ([2]; PBMC of subject HD 011): 0 pg/mL
IL6 ([2]; PBMC of subject HD 011): -11 pg/mL
TNFα ([2]; PBMC of subject HD 011): -8 pg/mL
IFNγ ([2]; PBMC of subject HD 340): 0 pg/mL
IL6 ([2]; PBMC of subject HD 340): 9 pg/mL
TNFα ([2]; PBMC of subject HD 340): 4 pg/mL
IFNγ ([2]; PBMC of subject HD 664): -3 pg/mL
IL6 ([2]; PBMC of subject HD 664): 0 pg/mL
TNFα ([2]; PBMC of subject HD 664): 0 pg/mL

ALQVTNHRYL [TcCA-2_657-666]
INF-γ secretion range [1]: 6.1 to 6.7 pg/mL
IFNγ ([2]; PBMC of patient CCC I 770): 0 pg/mL
IL6 ([2]; PBMC of patient CCC I 770): 1 pg/mL
TNFα ([2]; PBMC of patient CCC I 770): -6 pg/mL
IFNγ ([2]; PBMC of patient CCC I 861): 0 pg/mL
IL6 ([2]; PBMC of patient CCC I 861): -4 pg/mL
TNFα ([2]; PBMC of patient CCC I 861): -2 pg/mL
IFNγ ([2]; PBMC of patient CCC I 884): 0 pg/mL
IL6 ([2]; PBMC of patient CCC I 884): 0 pg/mL
TNFα ([2]; PBMC of patient CCC I 884): 0 pg/mL
IFNγ ([2]; PBMC of patient CCC III 509): 0 pg/mL
IL6 ([2]; PBMC of patient CCC III 509): -4 pg/mL
TNFα ([2]; PBMC of patient CCC III 509): -5 pg/mL
IFNγ ([2]; PBMC of patient IND 365): 2 pg/mL
IL6 ([2]; PBMC of patient IND 365): 10 pg/mL
TNFα ([2]; PBMC of patient IND 365): 14 pg/mL
IFNγ ([2]; PBMC of patient IND 388): 2 pg/mL
IL6 ([2]; PBMC of patient IND 388): 2 pg/mL
TNFα ([2]; PBMC of patient IND 388): -5 pg/mL
IFNγ ([2]; PBMC of patient IND 510): 0 pg/mL
IL6 ([2]; PBMC of patient IND 510): -3 pg/mL
TNFα ([2]; PBMC of patient IND 510): 1 pg/mL
IFNγ ([2]; PBMC of patient IND 535): 0 pg/mL
IL6 ([2]; PBMC of patient IND 535): -5 pg/mL
TNFα ([2]; PBMC of patient IND 535): -2 pg/mL
IFNγ ([2]; PBMC of patient IND 571): 1 pg/mL
IL6 ([2]; PBMC of patient IND 571): 0 pg/mL
TNFα ([2]; PBMC of patient IND 571): 0 pg/mL
IFNγ ([2]; PBMC of patient IND 917): -1 pg/mL
IL6 ([2]; PBMC of patient IND 917): -17 pg/mL
TNFα ([2]; PBMC of patient IND 917): -17 pg/mL
IFNγ ([2]; PBMC of subject HD 001): -2 pg/mL
IL6 ([2]; PBMC of subject HD 001): 1 pg/mL
TNFα ([2]; PBMC of subject HD 001): -6 pg/mL
IFNγ ([2]; PBMC of subject HD 004): 4 pg/mL
IL6 ([2]; PBMC of subject HD 004): -12 pg/mL
TNFα ([2]; PBMC of subject HD 004): -1 pg/mL
IFNγ ([2]; PBMC of subject HD 005): 0 pg/mL
IL6 ([2]; PBMC of subject HD 005): -58 pg/mL
TNFα ([2]; PBMC of subject HD 005): -4 pg/mL
IFNγ ([2]; PBMC of subject HD 006): 3 pg/mL
IL6 ([2]; PBMC of subject HD 006): -5 pg/mL
TNFα ([2]; PBMC of subject HD 006): 1 pg/mL
IFNγ ([2]; PBMC of subject HD 008): -3 pg/mL
IL6 ([2]; PBMC of subject HD 008): 3 pg/mL
TNFα ([2]; PBMC of subject HD 008): -21 pg/mL
IFNγ ([2]; PBMC of subject HD 011): 0 pg/mL
IL6 ([2]; PBMC of subject HD 011): -4 pg/mL
TNFα ([2]; PBMC of subject HD 011): 0 pg/mL
IFNγ ([2]; PBMC of subject HD 017): 0 pg/mL
IL6 ([2]; PBMC of subject HD 017): 0 pg/mL
TNFα ([2]; PBMC of subject HD 017): 0 pg/mL
IFNγ ([2]; PBMC of subject HD 340): 1 pg/mL
IL6 ([2]; PBMC of subject HD 340): 22 pg/mL
TNFα ([2]; PBMC of subject HD 340): 8 pg/mL
IFNγ ([2]; PBMC of subject HD 664): -3 pg/mL
IL6 ([2]; PBMC of subject HD 664): 0 pg/mL
TNFα ([2]; PBMC of subject HD 664): 0 pg/mL
